Test results published in ChEMBL document CHEMBL1153819, “Use of acetylcholine binding protein in the search for novel alpha7 nicotinic receptor ligands. In silico docking, pharmacological screening, and X-ray analysis” (J Med Chem, 2009).
The source made the active and inactive calls. No cut-off for these calls is given here.

Columns and labels:
[1] = target: Acetylcholine-binding protein (Lymnaea stagnalis, UniProt P58154); experiment: Displacement of [125I]alpha-bungarotoxin from Lymnaea stagnalis His-tagged AchBP
[2] = Displacement of [3H]epibatidine from Aplysia californica AchBP
[3] = target: T1, Neuronal acetylcholine receptor subunit alpha-7 (Homo sapiens, UniProt P36544); experiment: Binding affinity to human alpha7 nAChR allosteric site assessed as decrease in bungarotoxin Bmax at 100 uM by [125I]alpha-bungarotoxin saturation binding experiment
[4] = target: T2, 5-hydroxytryptamine receptor 3A (Homo sapiens) (UniProt P46098); experiment: Inhibition of human 5HT3A receptor
T2 sequence (whole entry): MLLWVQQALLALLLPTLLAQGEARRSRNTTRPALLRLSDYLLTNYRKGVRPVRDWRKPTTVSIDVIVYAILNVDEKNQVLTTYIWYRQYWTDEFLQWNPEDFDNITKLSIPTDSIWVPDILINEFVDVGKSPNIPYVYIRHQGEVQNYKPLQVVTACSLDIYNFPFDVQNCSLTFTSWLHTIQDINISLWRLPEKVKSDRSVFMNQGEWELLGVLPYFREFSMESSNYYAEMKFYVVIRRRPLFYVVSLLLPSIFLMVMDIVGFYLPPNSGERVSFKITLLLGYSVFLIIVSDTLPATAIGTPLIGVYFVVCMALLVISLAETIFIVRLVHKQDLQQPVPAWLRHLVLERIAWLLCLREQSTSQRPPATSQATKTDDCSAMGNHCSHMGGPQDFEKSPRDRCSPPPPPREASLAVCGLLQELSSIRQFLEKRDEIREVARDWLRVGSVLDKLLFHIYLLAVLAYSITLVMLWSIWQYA

[5] = target: T1, Neuronal acetylcholine receptor subunit alpha-7; experiment: Activity at human alpha7 nAChR expressed in Xenopus oocytes assessed as inhibition of acetylcholine-evoked current; type: cell-based, Oocyte; conditions: for Activity: Oocyte
[6] = target: T3, Neuronal acetylcholine receptor; alpha4/beta2 (Homo sapiens, UniProt P17787+P43681); experiment: Displacement of [3H]epibatidine from human alpha4beta2 nAChR expressed in HEK293t cells; type: cell-based; conditions: HEK-293T
[7] = target: T3, Neuronal acetylcholine receptor; alpha4/beta2; experiment: Activity at human alpha4beta2 nAChR expressed in Xenopus oocytes assessed as inhibition of acetylcholine-evoked current; type: cell-based, Oocyte; conditions: for Activity: Oocyte
[8] = target: T1, Neuronal acetylcholine receptor subunit alpha-7; experiment: Displacement of [125I]alpha-bungarotoxin from human alpha7 nAChR expressed in human SH-SY5Y cells; type: cell-based
[9] = target: T1, Neuronal acetylcholine receptor subunit alpha-7; experiment: Binding affinity to human alpha7 nAChR allosteric site assessed as increase in bungarotoxin Kd at 100 uM by [125I]alpha-bungarotoxin saturation binding experiment

T1 sequence (P36544 whole entry): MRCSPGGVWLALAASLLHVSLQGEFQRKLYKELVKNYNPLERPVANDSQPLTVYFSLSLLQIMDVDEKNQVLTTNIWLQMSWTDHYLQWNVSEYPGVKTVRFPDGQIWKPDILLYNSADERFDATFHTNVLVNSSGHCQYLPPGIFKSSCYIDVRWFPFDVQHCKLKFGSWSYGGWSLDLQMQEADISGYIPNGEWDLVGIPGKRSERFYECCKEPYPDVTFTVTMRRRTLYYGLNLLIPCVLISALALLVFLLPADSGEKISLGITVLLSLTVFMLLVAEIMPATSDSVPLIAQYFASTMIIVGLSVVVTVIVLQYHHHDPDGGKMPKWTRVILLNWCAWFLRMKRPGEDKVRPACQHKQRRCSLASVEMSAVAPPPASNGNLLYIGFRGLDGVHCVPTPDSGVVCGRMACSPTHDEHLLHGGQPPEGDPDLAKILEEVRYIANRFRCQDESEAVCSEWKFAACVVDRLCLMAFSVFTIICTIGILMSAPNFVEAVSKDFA
Chain of Acetylcholine-binding protein (P58154 whole entry): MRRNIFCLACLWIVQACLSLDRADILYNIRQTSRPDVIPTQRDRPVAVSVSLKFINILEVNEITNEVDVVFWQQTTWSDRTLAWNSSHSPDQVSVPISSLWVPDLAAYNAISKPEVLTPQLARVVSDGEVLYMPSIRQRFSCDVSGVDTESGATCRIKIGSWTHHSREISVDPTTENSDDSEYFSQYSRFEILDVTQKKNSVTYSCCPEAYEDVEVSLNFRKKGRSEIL
T3 sequence (P17787 whole entry): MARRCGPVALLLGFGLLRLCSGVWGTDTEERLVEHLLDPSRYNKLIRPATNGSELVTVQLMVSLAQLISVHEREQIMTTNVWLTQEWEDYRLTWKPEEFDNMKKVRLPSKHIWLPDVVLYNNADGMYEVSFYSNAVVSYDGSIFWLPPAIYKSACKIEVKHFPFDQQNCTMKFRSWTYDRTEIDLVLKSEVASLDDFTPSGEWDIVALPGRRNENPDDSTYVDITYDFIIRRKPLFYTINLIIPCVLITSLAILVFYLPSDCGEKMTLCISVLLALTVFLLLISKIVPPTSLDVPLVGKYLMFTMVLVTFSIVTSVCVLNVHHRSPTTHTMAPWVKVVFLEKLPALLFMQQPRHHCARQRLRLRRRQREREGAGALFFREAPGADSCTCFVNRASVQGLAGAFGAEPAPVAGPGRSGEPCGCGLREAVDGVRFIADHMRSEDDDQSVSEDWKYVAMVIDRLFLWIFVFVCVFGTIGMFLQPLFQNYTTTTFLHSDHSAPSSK
T3 sequence (P43681 whole entry): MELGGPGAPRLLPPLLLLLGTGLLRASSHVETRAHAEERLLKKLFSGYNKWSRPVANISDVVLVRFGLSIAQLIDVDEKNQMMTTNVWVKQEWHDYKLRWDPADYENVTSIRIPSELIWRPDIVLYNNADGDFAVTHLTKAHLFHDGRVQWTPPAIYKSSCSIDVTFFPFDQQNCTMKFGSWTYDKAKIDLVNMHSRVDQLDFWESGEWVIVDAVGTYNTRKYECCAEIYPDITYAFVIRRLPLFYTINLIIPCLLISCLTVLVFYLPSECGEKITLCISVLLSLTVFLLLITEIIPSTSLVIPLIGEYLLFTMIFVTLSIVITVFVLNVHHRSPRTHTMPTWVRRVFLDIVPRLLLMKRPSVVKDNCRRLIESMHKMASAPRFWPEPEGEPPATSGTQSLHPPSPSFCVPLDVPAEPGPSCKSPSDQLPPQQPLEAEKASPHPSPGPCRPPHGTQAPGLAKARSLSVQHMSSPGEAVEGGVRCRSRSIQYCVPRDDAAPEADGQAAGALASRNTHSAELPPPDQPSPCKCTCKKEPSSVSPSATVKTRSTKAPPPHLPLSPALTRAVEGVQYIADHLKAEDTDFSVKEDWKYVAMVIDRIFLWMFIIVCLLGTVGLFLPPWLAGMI

With `CCN1C2CCC1CC(OC1c3ccccc3CCc3ccccc31)C2` (centres undefined) the Ki [1] was 126 nM.
With `c1ccc2c(c1)CCc1ccccc1C2OC1CCNCC1` the Ki [1] was 3160 nM.
For `NC(N)=NCCN1C2CCC1CC(OC1c3ccccc3CCc3ccccc31)C2` (centres undefined), the Ki [1] was 501 nM.
`CN1C2CCC1CC(OC(=O)COC1c3ccccc3CCc3ccccc31)C2` (centres undefined) showed a Ki [1] of 100 nM.
Compound `CN1CCC[C@H]1c1cccnc1` [NICOTINE] has a pKi [2] of 6.4.
Work on `N#CCCN1C2CCC1CC(OC1c3ccccc3CCc3ccccc31)C2` (centres undefined) yielded a Ki [1] of 1000 nM.
In the case of `CCCN1CCC(OC2c3ccccc3CCc3ccccc32)CC1`, the Ki [1] is reported as 631 nM.
`Cc1ccc2c(c1)C(OC1CC3CCC(C1)N3C)c1ccccc1CC2` (centres undefined) showed a Ki [1] of 126 nM.
Compound `CN1CCC(OC2c3ccccc3CCc3ccccc32)CC1` [HEPZIDINE] has a Ki [1] of 1580 nM.
Work on `CC(=O)OCC[N+](C)(C)C` [ACETYLCHOLINE] yielded a Ki [1] of 3160 nM.
`Cc1cccc2c1CCc1ccccc1C2OC1CC2CCC(C1)N2C` (centres undefined) gave a Ki [1] of 316 nM.
In the case of `C[N+]1(C)C2CCC1CC(OC1c3ccccc3CCc3ccccc31)C2` (centres undefined), the Activity [3] is reported as “Active”, the Ki [1] is reported as 63.1 nM and the Activity [4] is reported as “Active”. The IC50 [5] was 880 nM, the Activity [5] was “Dose-dependent effect” and the Activity [6] was “inactive”. For the same compound, the IC50 [7] was 210 nM, the Activity [7] was “Dose-dependent effect” and the Ki [8] was 2000 nM.
In the case of `c1ccc(CN2C3CCC2CC(OC2c4ccccc4CCc4ccccc42)C3)cc1` (centres undefined), the Activity [3] is reported as “Active”, the Ki [1] is reported as 100 nM and the pKi [2] is reported as 6. The Activity [4] was “Active”, the IC50 [5] was 1730 nM and the Activity [5] was “Dose-dependent effect”. For the same compound, the Activity [6] was “inactive”, the Activity [9] was “Active” and the IC50 [7] was 460 nM. For the same compound, the Activity [7] was “Dose-dependent effect” and the Ki [8] was 12600 nM.
With `N=C(CCN1C2CCC1CC(OC1c3ccccc3CCc3ccccc31)C2)NO` (centres undefined) the Ki [1] was 1260 nM.
`c1ccc2c(c1)CCc1ccccc1C2OC1CC2CCC(C1)N2` (centres undefined) showed a Ki [1] of 316 nM.
With `CN1[C@@H]2CC[C@H]1C[C@@H](OC1c3ccccc3CCc3ccccc31)C2` [DEPTROPINE] the Ki [1] was 398 nM.
